# Results reported in PMC11999303 (iScience, 2025).
# Entries after “also recorded” stand apart in the source; their conditions may differ.
# Target: I-A^b (Mus musculus, UniProt P14434+P14483)
# Assay: MHC2-SCALE peptide exchange with 2D-LCMS detection on I-A^b
# Assay type: binding
# Settings: single peptide, lowmCLIP-I-A^b, standard exchange pH 5, 2D-LCMS
# I-A^b, sequence (P14434 whole entry, looked up): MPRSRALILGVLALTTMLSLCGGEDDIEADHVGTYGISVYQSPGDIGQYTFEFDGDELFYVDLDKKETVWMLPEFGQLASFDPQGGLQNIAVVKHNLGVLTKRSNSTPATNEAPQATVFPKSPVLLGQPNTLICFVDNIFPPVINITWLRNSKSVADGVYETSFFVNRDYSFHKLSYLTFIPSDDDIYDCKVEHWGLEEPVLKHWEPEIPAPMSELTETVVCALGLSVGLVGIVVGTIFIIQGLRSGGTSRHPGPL
# I-A^b, sequence (P14483 whole entry, looked up): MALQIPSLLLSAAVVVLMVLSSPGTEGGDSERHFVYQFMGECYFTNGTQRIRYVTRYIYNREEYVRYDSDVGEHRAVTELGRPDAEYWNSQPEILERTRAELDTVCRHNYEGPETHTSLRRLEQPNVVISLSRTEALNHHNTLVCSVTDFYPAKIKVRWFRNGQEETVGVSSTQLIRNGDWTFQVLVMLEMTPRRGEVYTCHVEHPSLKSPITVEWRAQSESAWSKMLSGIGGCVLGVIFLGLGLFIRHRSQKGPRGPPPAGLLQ
row,"peptide exchange / binding to I-A^b by MHC2-SCALE, in words",Sequence
1,binders,VIMSAHSLTNSSSDF [M57-B]
2,binders,DRGVIMSAHSLTNSS [M57-A]
3,complete peptide exchange,LPLQPFQLAFGHLVN [M46-A]
4,complete peptide exchange,LQPFQLAFGHLVNRQV [M46-B]
5,bound; also recorded: strong binder,HYKYMCNSSCMGVMN [M112-A]
